In data set [1] the test system is turnaround reflex of mice. The experiment in a line: Loss of turnaround reflex (sleep-inducing effect). It counts as in vivo, mouse. As to conditions: 100 mg/kg, oral. As to the method:
The sedative effect is translated by the reduction of the spontaneous motility of the animals. This was measured by the actimeter test developed by BOISSIER and SIMON (1965). The equipment was composed of actimetric cages, of the Apelab type (26×21.5×10 cm), through which pass two light rays which act on a photoelectric cell. The batches were constituted by 12 female Charles River CDl mice weighing between 20 and 24 g. The animals were placed individually in the cages 45 minutes after the oral administration of the products at the dose of 250 mg/kg or at the dose of 100 mg/kg. Each passage through a light beam was counted by an individual meter. The scores corresponding to the movements of the animals were recorded for 10 minutes and compared with the scores made by the batches of control animals, treated solely by the vehicle (0.1N HCl).
On the other hand, at the dose of 100 mg/kg, the CM 41378 provokes a loss of turnaround reflex characteristic of a sleep-inducing effect in 50% of the animals treated.

Data set [2] has as its system loss of the turn-around reflex in Charles River CDl mice. The experiment in a line: Potentialization of narcosis by pentobarbital. The note with it: po; mouse; product 60 min before pentobarbital 20 mg/kg i.p. Format: in vivo. On the procedure:
With a view to assessing the hypnogenic power of the products, we have studied their capacity to potentialize the effects of a subnarcotic dose of pentobarbital in the mouse. The batches were constituted by 10 Charles River CDl mice, weighing between 20 and 24 g. The pentobarbital (20 mg/kg, i.p.) was administered 60 minutes after administration of the products. The criterion of sleep-induction retained was the loss of the turn-around reflex.

Data set [3] relates to convulsions induced by an electric shock in Charles River CDl mice. The experiment in a line: Antagonism of the convulsions induced by an electric shock. As to conditions: 1 h; mouse; oral, 60 min before electric shock (12.5 volts, 0.3 seconds); read-out: Median effective dose (ED50) Antagonism of the electric shock. It counts as in vivo. As to the method:
(§1) The anti-epileptic effect of the products in the mouse was assessed on a model of convulsions provoked by an electric shock, and on a model of convulsions induced by a chemical agent: bicuculline.
The test was slightly modified from that of SWINYARD et al (1952) and ASAMI et al (1974). The equipment was composed of a Racia shock generator provided with two ocular electrodes delivering a current of 12.5 volts for 0.3 seconds. The batches were constituted by 10 Charles River CDl mice, weighing between 20 and 24 g. The products were administered by the oral route, 60 minutes before the electric shock. The animals presenting no tonic extension of the rear limbs were considered as being protected from the convulsive crisis.

In data set [4] the test system is convulsions provoked by bicuculline in Charles River CDl mice. In words: Antagonism of the convulsions provoked by bicuculline. The note with it: mouse; oral, 60 min before bicuculline 0.8 mg/kg i.v.; read-out: Median effective dose (ED50) Antagonism of Bicuculline. Format: in vivo. As to the method:
as §1
The batches were constituted by 10 Charles River CDl mice, weighing between 20 and 22 g. The products were administered by the oral route, 60 minutes before the bicuculline (0.8 mg/kg, i.v.). The appearance of tonic convulsions was noted during the 60 minutes following the injection of the bicuculline.

Data set [5] is described as follows: Lethal dose in the mouse after acute administration. As to conditions: in vivo, oral, calculated, read-out: LD50 (DL50). On the procedure: The products were administered by the oral route to batches of 5 female Charles River CDl mice, weighing between 20 and 24 g. They were solubilized in 0.1N HCl.
Toxicity was noted during the 72 hours following administration of the products. The LD50 was calculated for two products.
The results expressed in percentage of animals which die in the […] consecutive to the oral administration of the products are noted in the preceding Table.

Data set [6] concerns spontaneous motility of female Charles River CDl mice. In words: Effect of the products on the spontaneous motility (actimeter test). It counts as in vivo. The note with it: Mus musculus, po, 0.75 h; 10 mg/kg p.o.; 45 min after administration, recorded 10 min; vs controls; * p 0,05 (Student test); read-out: Locomotor activity Score (p.cent/controls).

SMILES strings stand for the structures.

By ED50 is commonly meant the dose that gives a 50% effect, or the effect in half of the subjects. In general, LD50 refers to the dose at which mortality reaches 50%. As for `OC1CCN(c2ccc(-c3ccc(Cl)cc3Cl)nn2)CC1` [SR 41378, 3-(4-hydroxy-piperidino)-6-(2,4-dichloro-phenyl)pyridazine], the “loss of turnaround reflex characteristic of a sleep-inducing effect, animals treated” value in data set [1] is listed as 50%. The values for the 50% effective dose (ED50) in data set [2], in data set [3] and in data set [4] were 21 mg/kg, 30 mg/kg and 5.7 mg/kg, respectively. The LD50 at 72 h in data set [5] was 423 mg/kg.

In the case of `CN(C)C(=O)OC1CCN(c2ccc(-c3ccccc3Cl)nn2)CC1` [SR 42095], the median effective dose (ED50) in data set [2] is 7.4 mg/kg; in data set [3], 2 mg/kg; in data set [4], 1.6 mg/kg. For the same compound, in data set [6], the change in vivo at 10 mg/kg was -28%.

The values above are taken from patent US4624952A, “Pyridazine and pyrimidine compounds active on the central nervous system as sedatives or anticonvulsants” (Sanofi, priority 1983, dated 1986).
